The source of these data is patent publication US9271978B2 (Zenith Epigenetics Corp., priority 2012, dated 2016).

Data set [1] deals with T1, Brd4 bromodomain 1 (BRD4(1)) (Homo sapiens, UniProt O60885).
T1 construct: Illustrative results with the first bromodomain of Brd4; made in house; host or cells: E. coli BL21 (DE3)
Description: Inhibition of tetra-acetylated histone H4 binding to Brd4 bromodomain 1 (TR-FRET). More on the design: key: Active: Compounds with an IC50 value less than 30 μM were deemed to be active.; Not Active: Compounds with an IC50 value less than 30 μM were deemed to be active. Particulars: tetra-acetylated histone H4 peptide, active = IC50 <30 μM. In a few lines: (§1)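 IC50 values come from dose-response curves of the 665 nm to 620 nm TR-FRET signal decrease, measured after 2 h at room temperature. Reactions contained 200 nM E. coli-expressed His-tagged bromodomain, 25-50 nM biotinylated tetra-acetylated H4 peptide, Eu-streptavidin plus XL665 anti-His antibody, with 30 mM HEPES pH 7.4, 320 mM KF and 0.2% DMSO.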
(In general: Time-resolved FRET reads energy transfer from a long-lived donor to a nearby acceptor.)

For a further data set, the system named is MM1.s cells. Briefly: In vivo efficacy, multiple myeloma xenograft model using MM1.s cells. Also noted: species or system mouse. Particulars: MM1.s multiple myeloma xenograft in mice, oral 25 to 90 mg/kg b.i.d, tumor growth inhibition. How it is done: MM1.s cells (ATCC) were grown under standard cell culture conditions and SCID-Beige strain of female mice age 6-7 weeks were injected with 10×10^6 cells/animal in 100 μl PBS+100 μL Matrigel in the lower left abdominal flank. By approximately day 21 after MM1.s cells injection, mice were randomized based on tumor volume (L×W×H)/2) of average ^˜120 mm^3. Mice were dosed orally with compound at 25 to 90 mg/kg b.i.d in EA006 formulation at 10 mL/kg body weight dose volume. Tumor measurements were taken with electronic micro calipers and body weights measured on alternate days beginning from dosing period. The average tumor volumes, percent Tumor Growth Inhibition (TGI) and % change in body weights were compared relative to Vehicle control animals. The means, statistical analysis and the comparison between groups were calculated using Student's t-test in Excel.

The target of data set [2] is T2, second bromodomain of Brd2 (BRD2(2)) (Homo sapiens, UniProt P25440).
T2 construct: made in house; host or cells: E. coli BL21 (DE3)
Briefly: Inhibition of tetra-acetylated histone H4 binding to Brd2 bromodomain 2 (TR-FRET). Also noted: key: Active: Compounds with an IC50 value less than 30 μM were deemed to be active.; Not Active: Compounds with an IC50 value less than 30 μM were deemed to be active. The note with it: tetra-acetylated histone H4 peptide, active = IC50 <30 μM. In a few lines:
as §1

The next data set deals with c-myc. Briefly: Inhibition of c-myc expression in MV4-11 cells (mRNA, real-time PCR). Format: cell-based. More on the design: key: Active: Compounds with an IC50 value less than 30 μM were deemed to be active.; Not Active: Compounds with an IC50 value less than 30 μM were deemed to be active. Particulars: Human AML MV4-11 cells, 3 h incubation. In a few lines:
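Duplex RT-qPCR of c-myc against cyclophilin cDNA gave IC50 from a dose–response curve. Input was isolated mRNA from 2.5×10^4 MV4-11 cells after 3 h exposure at 37 °C to compound or 0.1% DMSO vehicle.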
(Real-time PCR tracks product formation cycle by cycle.)

Data set [3] relates to human AML MV-4-11 (CRL-9591) cells. Briefly: Inhibition of cell proliferation in MV4-11 cells. Format: cell-based. The note with it: human AML MV-4-11 cells, 72 h; active = IC50 <30 μM. More on the design: key: Active: Compounds with an IC50 value less than 30 μM were deemed to be active.; Not Active: Compounds with an IC50 value less than 30 μM were deemed to be active. An outline of the steps: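 IC50 values come from blank-corrected proliferation relative to DMSO controls, read as 490 nm absorbance 3–4 h after CellTiter Aqueous One addition. Before that, cells seeded at 5×10^4/well were exposed for 72 h (37° C, 5% CO2) to triplicate two-fold compound dilutions spanning 30–0.2 μM.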

In a further data set the test system is hIL-6 mRNA. Briefly: Inhibition of hIL-6 mRNA transcription in U937 cells. Format: cell-based, human. More on the design: key: Active: Compounds with an IC50 value less than 30 μM were deemed to be active.; Not Active: Compounds with an IC50 value less than 30 μM were deemed to be active. Particulars: LPS stimulation, active = IC50 <30 μM. An outline of the steps:
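Readout is one-step real-time PCR of hIL-6 mRNA, normalized to an internal control and given as fold induction versus control. Cells: PMA (60 ng/mL, 3 days)-differentiated U937 macrophages, compound added 1 h before 1 ug/mL LPS, harvested after 3 h at 37° C.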

The subject of another data set is hMCP-1 mRNA. Briefly: Inhibition of hMCP-1 mRNA transcription in human peripheral blood mononuclear cells. Format: cell-based. More on the design: key: Active: Compounds with an IC50 value less than 30 μM were deemed to be active.; Not Active: Compounds with an IC50 value less than 30 μM were deemed to be active. Particulars: 3 h. How it is done:
In this example, hMCP-1 mRNA in human peripheral blood mononuclear cells was quantitated to measure the transcriptional inhibition of hMCP-1 when treated with a compound of the present disclosure.
Human Peripheral Blood Mononuclear Cells were plated (1.0×10^5 cells per well) in a 96-well plate in 45 μL RPMI-1640 containing 10% FBS and penicillin/streptomycin. The cells were treated with the test compound (45 μL at 2× concentration), and then the cells were incubated at 37° C. for 3 h before the cells were harvested. At time of harvest, cells were transferred to V-bottom plates and centrifuged (800 rpm, 5 min). Spent media was removed and cell lysis solution (70 μL) was added the cells in each well and incubated for 5-10 min at room temperature, to allow for complete cell lysis and detachment. mRNA was then prepared using the “mRNA Catcher PLUS plate” (Invitrogen), according to the protocol supplied. After the last wash, as much wash buffer as possible was aspirated without allowing the wells to dry. Elution buffer (E3, 70 μL) was then added to each well. mRNA was then eluted by incubating the mRNA Catcher PLUS plate with Elution Buffer for 5 min at 68° C. and then immediately placing the plate on ice.
The eluted mRNA isolated was then used in a one-step quantitative real-time PCR reaction, using components of the Ultra Sense Kit together with Applied Biosystems primer-probe mixes. Real-time PCR data was analyzed, normalizing the Ct values for hMCP-1 to an internal control, prior to determining the fold induction of each unknown sample, relative to the control.

The subject of another data set is hIL-17 mRNA. Description: Inhibition of hIL-17 mRNA transcription in human peripheral blood mononuclear cells. Format: cell-based. Also noted: key: Active: Compounds with an IC50 value less than 30 μM were deemed to be active.; Not Active: Compounds with an IC50 value less than 30 μM were deemed to be active. The note with it: OKT3 antibody stimulation. How it is done: In this example, hIL-17 mRNA in human peripheral blood mononuclear cells was quantitated to measure the transcriptional inhibition of hIL-17 when treated with a compound of the invention.
Human peripheral blood mononuclear cells were plated (2.0×10^5 cells per well) in a 96-well plate in 45 μL OpTimizer T Cell expansion media containing 20 ng/ml IL-2 and penicillin/streptomycin. The cells were treated with the test compound (45 μL. at 2× concentration), and then the cells were incubated at 37° C. for 1 h before addition of 10× stock OKT3 antibody at 10 ug/ml in media. Cells were incubated at 37° C. for 3 h before the cells were harvested. At time of harvest, cells were centrifuged (800 rpm, 5 min). Spent media was removed and cell lysis solution (70 μL) was added the cells in each well and incubated for 5-10 min at room temperature, to allow for complete cell lysis and detachment. mRNA was then prepared using the “mRNA Catcher PLUS plate” (Invitrogen), according to the protocol supplied. After the last wash, as much wash buffer as possible was aspirated without allowing the wells to dry. Elution buffer (E3, 70 μL) was then added to each well. mRNA was then eluted by incubating the mRNA Catcher PLUS plate with Elution Buffer for 5 min at 68° C. and then immediately placing the plate on ice.
The eluted mRNA isolated was then used in a one-step quantitative real-time PCR reaction, using components of the Ultra Sense Kit together with Applied Biosystems primer-probe mixes. Real-time PCR data was analyzed, normalizing the Ct values for hIL-17 to an internal control, prior to determining the fold induction of each unknown sample, relative to the control.

T2 sequence (P25440 344-453 limits assumed): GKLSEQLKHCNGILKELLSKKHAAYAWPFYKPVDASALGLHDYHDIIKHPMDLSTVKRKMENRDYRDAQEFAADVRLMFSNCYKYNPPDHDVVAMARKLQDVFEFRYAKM

In the case of `Cc1noc(C)c1-c1cc(N)c(=O)n(Cc2ccc(Cl)cc2)c1` [Example 152, 3-Amino-1-(4-chlorobenzyl)-5-(3,5-dimethylisoxazol-4-yl)pyridin-2(1H)-one], the “FRET activity (IC50 <30 μM) BRD4(1)” value in data set [1] is given as “Active”. The In vivo activity entry in the data set on MM1.s cells was “Active”.
Regarding `COc1cc(-c2nn(Cc3ccccc3)c(=O)c3ccccc23)ccc1O` [Example 165, 2-Benzyl-4-(4-hydroxy-3-methoxyphenyl)-2H-phthalazin-1-one], the melting point – broadly, the temperature of the solid-liquid transition – was 197 to 200 °C. Further, the “FRET activity (IC50 <30 μM) BRD4(1)” value in data set [1] is “Active”. For the same compound, the “FRET activity (IC50 <30 μM) BRD2(2)” value in data set [2] was “Active”. Further, in the data set on c-myc, the “c-myc activity (IC50 <30 μM)” value is “Active”. Moreover, the “Cell Proliferation activity (IC50 <30 μM)” value (“Cell Proliferation activity” below) in [3] was “Active”. For the same compound, the “IL-6 activity (IC50 <30 μM)” value in the data set with hIL-6 mRNA is on record as “Active”.
Turning to `Cc1noc(C)c1-c1ccc(=O)n(Cc2ccccc2F)c1` [Example 27, 5-(3,5-Dimethylisoxazol-4-yl)-1-(2-fluorobenzyl)pyridin-2(1H)-one], the “FRET activity (IC50 <30 μM) BRD4(1)” value in data set [1] was “Active”. Also, the “FRET activity (IC50 <30 μM) BRD2(2)” value in data set [2] is “Active”. In addition, in data set [3], the “Cell Proliferation activity” value was “Active”. Also, in the data set on hIL-6 mRNA, the “IL-6 activity (IC50 <30 μM)” value is listed as “Active”. For the same compound, the “MCP-1 activity (IC50 < 30 μM)” value with hMCP-1 mRNA is given as “Active”.
Compound `COc1cc(-c2cn(Cc3ccccc3)c(=O)c3ccccc23)ccc1O` [Example 169, 2-Benzyl-4-(4-hydroxy-3-methoxyphenyl)isoquinolin-1(2H)-one] displayed a melting point of 165 to 167 °C. The “FRET activity (IC50 <30 μM) BRD4(1)” value in [1] is listed as “Active”. In data set [2], the “FRET activity (IC50 <30 μM) BRD2(2)” value is reported as “Active”. The “c-myc activity (IC50 <30 μM)” value in the data set on c-myc is “Active”. For the same compound, in [3], the “Cell Proliferation activity” value is “Active”. Besides, in the data set with hIL-6 mRNA, the “IL-6 activity (IC50 <30 μM)” value is “Active”.
For `Cc1noc(C)c1-c1cc(N)c(=O)n(Cc2cccc3[nH]cc(C)c23)c1` [Example 271, 3-Amino-5-(3,5-dimethylisoxazol-4-yl)-1-((3-methyl-1H-indol-4-yl)methyl)pyridin-2(1H)-one], the “FRET activity (IC50 <30 μM) BRD4(1)” value in [1] is listed as “Active”. Further, in the data set with c-myc, the “c-myc activity (IC50 <30 μM)” value is listed as “Active”. The “Cell Proliferation activity” value in data set [3] is recorded as “Active”. In the data set on hIL-6 mRNA, the “IL-6 activity (IC50 <30 μM)” value was “Active”. Further, in the data set on hIL-17 mRNA, the “IL-17 activity (IC50 < 30 μM)” value is listed as “Active”.
Regarding `Cc1noc(C)c1-c1cc(N)c(=O)n(Cc2cccc3[nH]ccc23)c1` [Example 247, 1-((1H-Indol-4-yl)methyl)-3-amino-5-(3,5-dimethylisoxazol-4-yl)pyridin-2(1H)-one], the “FRET activity (IC50 <30 μM) BRD4(1)” value in data set [1] is on record as “Active”. For the same compound, the “c-myc activity (IC50 <30 μM)” value in the data set on c-myc is “Active”. The “Cell Proliferation activity” value in [3] is on record as “Active”. In addition, in the data set with hIL-6 mRNA, the “IL-6 activity (IC50 <30 μM)” value is reported as “Active”. Moreover, the “IL-17 activity (IC50 < 30 μM)” value with hIL-17 mRNA is “Active”.
`COc1cc(Nc2cn(Cc3ccccc3)c(=O)c3ccccc23)cc(OC)c1OC` [Example 172, 2-Benzyl-4-((3,4,5-trimethoxyphenyl)amino)isoquinolin-1(2H)-one]: the melting point was 162 to 164 °C. In data set [1], the “FRET activity (IC50 <30 μM) BRD4(1)” value is “Active”. Also, the “FRET activity (IC50 <30 μM) BRD2(2)” value in data set [2] is recorded as “Active”. For the same compound, the “c-myc activity (IC50 <30 μM)” value in the data set with c-myc is given as “Not Active”. In addition, in data set [3], the “Cell Proliferation activity” value is “Active”. In addition, the “IL-6 activity (IC50 <30 μM)” value in the data set on hIL-6 mRNA is “Active”.
